# According to patent US20200289525A1, “Methods of Increasing Microbial Diversity of a Skin Microbiota” (The Procter & Gamble Company, priority 2019, published 2020):
# Entries after “also recorded” stand apart in the source; their conditions may differ. Where two headings read alike, the source gives them in different places.
# Experiments:
# skin microbiota [1] = experiment: Four-week daily wash of atopic dermatitis without lesions, 16S rDNA sequencing and qPCR (FIG. 6); type: in vivo, human; settings: baseline vs four weeks of daily washing, p=0.027, FDR>0.05
# Method: A study mirroring the study described in the brief description of FIG. 5 was conducted with subjects having atopic dermatitis without lesions substituted for subjects with atopic dermatitis with lesions. The relative abundance of Staphylococcus was measured using 16S rDNA sequencing and qPCR quantification. Subjects performed the standard leg wash using B7U bar soap, vehicle only (BCP2), or zinc pyrithione in BCP2 vehicle (BCP2ZPT). Samples were taken at the onset of the study to establish a baseline and after four weeks of leg washings.
# A related experiment assessing the treatment effects of a zinc ionophore on skin microbiota diversity in subjects with atopic dermatitis without lesions was performed to assess the effects of the therapeutic in this context. The experimental design involved daily body washes of subjects with atopic dermatitis lacking visible lesions over a four-week period, with subjects engaging in daily washing with either B7U bar soap, vehicle alone (BCP2 base), or BCP2ZPT (which included 0.5% zinc pyrithione). Skin samples were again analyzed for microbiota composition by 16S rDNA sequencing with qPCR to quantify the abundances of the bacterial genera in the skin microbiotas.
# skin microbiota [2] = settings: atopic dermatitis lesion area, baseline vs four weeks of daily washes
# Method: The effect of zinc pyrithione body wash on skin microbiota of subjects with atopic dermatitis with lesions was assessed using a standard leg wash assay. Subjects completed a 4-week period of daily leg washes with zinc pyrithione (BCP2ZPT), a B7U bar soap, or a vehicle control (BCP2). Samples were collected at baseline (study onset) and after 4 weeks of leg washings.
# Another study was conducted to specifically assess the effect of a zinc ionophore, i.e., zinc pyrithione, on the skin microbiota diversity of atopic dermatitis lesions using standard body wash protocol well-known in the art. The washes were carried out on a daily basis over a four-week period and 16S rDNA sequencing was used to identify bacterial genera while qPCR amplification was used to quantify the abundance of the genera. Measurements were taken at baseline and after the four-week wash period. Controls involved subjects washing with B7U bar soap or the BCP2 vehicle alone. […]
# skin microbiota [3] = settings: skin having atopic dermatitis, in a body wash
# skin microbiota [4] = settings: four-week wash period
# From the text: Only qualified subjects with atopic dermatitis received treatment products during the treatment phase. These qualified subjects were each divided into three treatment groups. […]
# Samples of microbiotas from skin with atopic dermatitis were subjected to sequence analyses to identify the various genera present on the skin and to measure relative abundances. In a first sequencing round, read lengths of 150-800 bp were obtained using the Closed OTU picking method. […] The second sequencing round yielded read lengths of 250-600 bp using the Cosed OTU picking method. […] The third sequencing round involved read lengths of 250-600 bp being obtained using the Cosed OTU picking method. […]
# A study was conducted of the effect on skin microbiota of single washes or four-week wash periods of either a 0.5% zinc pyrithione body wash, a vehicle body wash, or a B7U bar soap wash. The relative abundances of 11 identified bacterial genera were monitored, along with a category of unclassified microbes. […]
compound,measurement,setting,value
"[O-]n1ccccc1=S.[O-]n1ccccc1=S.[Zn+2] [zinc pyrithione, zinc salt of 1-hydroxy-2-pyridinethione]",abundance of Staphylococcus,skin microbiota [1],significantly reduced; also recorded: selective reduction
same,abundance of Kocuria,skin microbiota [2],increased
same,total bacterial level,skin microbiota [3],lowers
same,relative abundance of Staphylococcus,skin microbiota [4]; atopic dermatitis patients not exhibiting lesions,selectively reduces
same,relative abundance of Staphylococcus,skin microbiota [4]; subjects with atopic dermatitis lesions,selectively reduces
